# According to ChEMBL document CHEMBL1156903, “Synthesis of bisboron compounds and their strong inhibitory activity on store-operated calcium entry” (Bioorg Med Chem Lett, 2010):
# Experiment: Inhibition of thapsigargin-induced SOCE channel in fura-2 loaded human Jarkart T cells in presence of 2 mM calcium
# Details: Jurkat
row,IC50 [nM],SMILES
1,320,NCCOB(c1ccccc1)c1cccc(COCc2cccc(B(OCCN)c3ccccc3)c2)c1
2,640,Cc1ccc(B(OCCN)c2ccc(Oc3ccc(B(OCCN)c4ccc(C)c(Cl)c4)cc3)cc2)cc1Cl
3,450,NCCOB(c1ccccc1)c1ccc(-c2ccc(B(OCCN)c3ccccc3)cc2)cc1
4,1900,NCCOB(c1ccccc1)c1cccc(COCc2cccc(Oc3ccccc3)c2)c1

# Continued, molecule first:
row,SMILES,IC50 [nM]
1,NCCOB(c1ccccc1)c1ccccc1,15000
2,NCCOB(c1ccccc1)c1ccc(Oc2ccc(B(OCCN)c3ccccc3)cc2)cc1,410
3,NCCOB(c1ccccc1)c1ccc(CCOCc2ccc(B(OCCN)c3ccccc3)cc2)cc1,310
4,NCCOB(c1ccccc1)c1ccc(COCc2ccc(B(OCCN)c3ccccc3)cc2)cc1,430
